Source: the supplement of paper PMC8612539

Test system: Histophilus somni
Experiment: minimum inhibitory concentration (MIC)
Description: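 Broth microdilution MIC (Sensititre BOPO7F bovine plate, CLSI methods) of 19 antimicrobials against field isolates of P. multocida, M. haemolytica, H. somni (deep nasopharyngeal swabs) and E. coli, Enterococcus spp. (rectal swabs) from weaned dairy heifers. Incubation 16-24 h at 35 C. MIC is the lowest concentration preventing visible growth. Values with <= or > lie at the tested range limits. Trimethoprim-sulfamethoxazole is given as the trimethoprim component of a 1:19 mixture.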

COc1cc(NS(=O)(=O)c2ccc(N)cc2)nc(OC)n1 [sulfadimethoxine]
Conditions | minimum inhibitory concentration [mg/L]
isolate (source animal id): 3 | ≤ 256
isolate (source animal id): 4 | ≤ 256
isolate (source animal id): 7 | ≤ 256
isolate (source animal id): 14 | ≤ 256
isolate (source animal id): 15 | ≤ 256
isolate (source animal id): 17 | ≤ 256
isolate (source animal id): 18 | ≤ 256
isolate (source animal id): 20 | ≤ 256
isolate (source animal id): 23 | > 256
isolate (source animal id): 45 | > 256
isolate (source animal id): 53 | > 256
isolate (source animal id): 83 | ≤ 256
isolate (source animal id): 88 | ≤ 256
isolate (source animal id): 92 | ≤ 256
isolate (source animal id): 93 | ≤ 256
isolate (source animal id): 99 | ≤ 256
isolate (source animal id): 100 | ≤ 256
isolate (source animal id): 105 | ≤ 256
isolate (source animal id): 107 | ≤ 256
isolate (source animal id): 108 | ≤ 256
isolate (source animal id): 109 | ≤ 256
isolate (source animal id): 110 | ≤ 256
isolate (source animal id): 117 | ≤ 256
isolate (source animal id): 121 | ≤ 256
isolate (source animal id): 123 | ≤ 256
isolate (source animal id): 124 | ≤ 256
isolate (source animal id): 127 | ≤ 256
isolate (source animal id): 128 | ≤ 256
isolate (source animal id): 130 | ≤ 256
isolate (source animal id): 132 | ≤ 256
isolate (source animal id): 135 | ≤ 256
isolate (source animal id): 140 | ≤ 256
isolate (source animal id): 141 | ≤ 256
isolate (source animal id): 142 | ≤ 256
isolate (source animal id): 144 | ≤ 256
isolate (source animal id): 146 | ≤ 256
isolate (source animal id): 147 | ≤ 256
isolate (source animal id): 151 | ≤ 256
isolate (source animal id): 153 | ≤ 256
isolate (source animal id): 154 | ≤ 256
isolate (source animal id): 156 | ≤ 256
isolate (source animal id): 157 | ≤ 256
isolate (source animal id): 176 | > 256
isolate (source animal id): 183 | > 256
isolate (source animal id): 186 | > 256
isolate (source animal id): 196 | > 256
isolate (source animal id): 198 | > 256
isolate (source animal id): 200 | > 256
isolate (source animal id): 206 | > 256
isolate (source animal id): 208 | > 256
isolate (source animal id): 210 | > 256
isolate (source animal id): 212 | ≤ 256
isolate (source animal id): 215 | > 256
isolate (source animal id): 216 | > 256
isolate (source animal id): 218 | ≤ 256
isolate (source animal id): 219 | > 256
isolate (source animal id): 224 | > 256
isolate (source animal id): 228 | > 256
isolate (source animal id): 230 | > 256
isolate (source animal id): 233 | > 256
isolate (source animal id): 238 | > 256
isolate (source animal id): 239 | ≤ 256
isolate (source animal id): 241 | > 256
isolate (source animal id): 242 | > 256
isolate (source animal id): 243 | ≤ 256
isolate (source animal id): 245 | > 256
isolate (source animal id): 246 | > 256
isolate (source animal id): 247 | > 256
isolate (source animal id): 248 | ≤ 256
isolate (source animal id): 250 | > 256
isolate (source animal id): 251 | > 256
isolate (source animal id): 252 | > 256
isolate (source animal id): 254 | > 256
isolate (source animal id): 258 | ≤ 256
isolate (source animal id): 259 | > 256
isolate (source animal id): 262 | ≤ 256
isolate (source animal id): 264 | ≤ 256
isolate (source animal id): 265 | > 256
isolate (source animal id): 266 | > 256
isolate (source animal id): 267 | > 256
isolate (source animal id): 269 | ≤ 256
isolate (source animal id): 271 | > 256
isolate (source animal id): 272 | > 256
isolate (source animal id): 274 | ≤ 256
isolate (source animal id): 276 | ≤ 256
isolate (source animal id): 278 | > 256
isolate (source animal id): 280 | > 256
isolate (source animal id): 281 | > 256
isolate (source animal id): 283 | ≤ 256
isolate (source animal id): 288 | ≤ 256
isolate (source animal id): 291 | ≤ 256
isolate (source animal id): 292 | > 256
isolate (source animal id): 296 | ≤ 256
isolate (source animal id): 306 | > 256
isolate (source animal id): 336 | ≤ 256
isolate (source animal id): 337 | ≤ 256
isolate (source animal id): 341 | ≤ 256

COc1cc(Cc2cnc(N)nc2N)cc(OC)c1OC.Cc1cc(NS(=O)(=O)c2ccc(N)cc2)no1 [trimethoprim-sulfamethoxazole]
Conditions | minimum inhibitory concentration [mg/L]
isolate (source animal id): 3 | ≤ 2
isolate (source animal id): 4 | > 2
isolate (source animal id): 7 | > 2
isolate (source animal id): 14 | > 2
isolate (source animal id): 15 | ≤ 2
isolate (source animal id): 17 | > 2
isolate (source animal id): 18 | ≤ 2
isolate (source animal id): 20 | > 2
isolate (source animal id): 23 | ≤ 2
isolate (source animal id): 45 | > 2
isolate (source animal id): 53 | > 2
isolate (source animal id): 83 | ≤ 2
isolate (source animal id): 88 | > 2
isolate (source animal id): 92 | ≤ 2
isolate (source animal id): 93 | ≤ 2
isolate (source animal id): 99 | ≤ 2
isolate (source animal id): 100 | ≤ 2
isolate (source animal id): 105 | ≤ 2
isolate (source animal id): 107 | ≤ 2
isolate (source animal id): 108 | ≤ 2
isolate (source animal id): 109 | ≤ 2
isolate (source animal id): 110 | ≤ 2
isolate (source animal id): 117 | > 2
isolate (source animal id): 121 | > 2
isolate (source animal id): 123 | ≤ 2
isolate (source animal id): 124 | ≤ 2
isolate (source animal id): 127 | ≤ 2
isolate (source animal id): 128 | > 2
isolate (source animal id): 130 | ≤ 2
isolate (source animal id): 132 | > 2
isolate (source animal id): 135 | > 2
isolate (source animal id): 140 | > 2
isolate (source animal id): 141 | ≤ 2
isolate (source animal id): 142 | ≤ 2
isolate (source animal id): 144 | ≤ 2
isolate (source animal id): 146 | ≤ 2
isolate (source animal id): 147 | ≤ 2
isolate (source animal id): 151 | > 2
isolate (source animal id): 153 | ≤ 2
isolate (source animal id): 154 | ≤ 2
isolate (source animal id): 156 | ≤ 2
isolate (source animal id): 157 | ≤ 2
isolate (source animal id): 176 | ≤ 2
isolate (source animal id): 183 | ≤ 2
isolate (source animal id): 186 | ≤ 2
isolate (source animal id): 196 | ≤ 2
isolate (source animal id): 198 | ≤ 2
isolate (source animal id): 200 | ≤ 2
isolate (source animal id): 206 | ≤ 2
isolate (source animal id): 208 | ≤ 2
isolate (source animal id): 210 | ≤ 2
isolate (source animal id): 212 | ≤ 2
isolate (source animal id): 215 | ≤ 2
isolate (source animal id): 216 | ≤ 2
isolate (source animal id): 218 | ≤ 2
isolate (source animal id): 219 | ≤ 2
isolate (source animal id): 224 | ≤ 2
isolate (source animal id): 228 | ≤ 2
isolate (source animal id): 230 | ≤ 2
isolate (source animal id): 233 | > 2
isolate (source animal id): 238 | > 2
isolate (source animal id): 239 | > 2
isolate (source animal id): 241 | ≤ 2
isolate (source animal id): 242 | ≤ 2
isolate (source animal id): 243 | ≤ 2
isolate (source animal id): 245 | > 2
isolate (source animal id): 246 | ≤ 2
isolate (source animal id): 247 | ≤ 2
isolate (source animal id): 248 | ≤ 2
isolate (source animal id): 250 | ≤ 2
isolate (source animal id): 251 | ≤ 2
isolate (source animal id): 252 | ≤ 2
isolate (source animal id): 254 | ≤ 2
isolate (source animal id): 258 | ≤ 2
isolate (source animal id): 259 | ≤ 2
isolate (source animal id): 262 | ≤ 2
isolate (source animal id): 264 | ≤ 2
isolate (source animal id): 265 | > 2
isolate (source animal id): 266 | ≤ 2
isolate (source animal id): 267 | ≤ 2
isolate (source animal id): 269 | ≤ 2
isolate (source animal id): 271 | ≤ 2
isolate (source animal id): 272 | > 2
isolate (source animal id): 274 | ≤ 2
isolate (source animal id): 276 | ≤ 2
isolate (source animal id): 278 | ≤ 2
isolate (source animal id): 280 | > 2
isolate (source animal id): 281 | ≤ 2
isolate (source animal id): 283 | ≤ 2
isolate (source animal id): 288 | ≤ 2
isolate (source animal id): 291 | > 2
isolate (source animal id): 292 | ≤ 2
isolate (source animal id): 296 | ≤ 2
isolate (source animal id): 306 | ≤ 2
isolate (source animal id): 336 | ≤ 2
isolate (source animal id): 337 | ≤ 2
isolate (source animal id): 341 | ≤ 2
